Experimental data from patent US20220233566A1, “NOVEL CARBONATE COMPOUND HAVING PYRROLOPYRIMIDINE SKELETON OR PHARMACEUTICALLY ACCEPTABLE SALT THEREOF” (TAIHO PHARMACEUTICAL CO., LTD., priority 2019, published 2022).

What was measured:
A427 = assay: Growth suppression activity to human tumor cell line (Evaluation 3); format: cell-based; details: A-427, 72 h; Human lung cancer, A427, 3 days
Protocol: (§1) Human tumor cell lines different in type were suspended in mediums, seeded in individual wells of a multi-well plate and cultured. On the day after initiation of culture, serially diluted solutions of a compound were added. Culture was carried out for further 3 days. Cells were counted by a CellTiter-Glo (manufactured by Promega KK) in accordance with the protocol recommended by Promega KK. Cell viability was calculated in accordance with the equation shown below and the concentration (IC50 (nM)) of a compound at which 50% of cell growth is inhibited was obtained.
(§2) T: Intensity of light emitted from a well containing a compound
(§3) C: Intensity of light emitted from a well containing no compound

H520 = assay: as above; format: cell-based; details: NCI-H520, 72 h; Human lung cancer, H520, 3 days
Protocol: as §1, §2, §3

[1] = tested on: human brain tumor cell line (U-87 MG); assay: Evaluation 1 of antitumor effect and toxicity in mouse (U-87 MG subcutaneous transplant); format: in vivo, BALB/cA Jcl-nu/nu mice; details: oral every day; Comparative Example 2 12 mg/kg/day, Example 1 15.4 mg/kg/day
Protocol: The day of grouping mice was determined Day 0.
IRs of Comparative Example 2-compound administration group and Example 1-compound administration group on the final day of evaluation (Day 6 in Comparative Example 2 and Day 13 in Example 1) are shown in FIG. 1 and BWC versus elapsed days is shown in FIG. 2.

[2] = tested on: human brain tumor cell line (U-87 MG); assay: Combination use of compound and radiation, cell viability (crystal violet); format: cell-based; details: any order (same-day, compound first, radiation first), Student's t-test
Protocol: A human brain tumor cell line (U-87 MG) was suspended in a medium, seeded in individual wells of a multi-well plate and cultured. In the case where radiation exposure and addition of a compound are simultaneously carried out, both treatments were carried out on two days after initiation of culture. In the case where addition of a compound preceded radiation exposure, a serially diluted solution of a compound was added on the day after initiation of culture and radiation exposure was carried out on two days after initiation of culture. In the case where radiation exposure preceded addition of a compound, radiation exposure was carried out on the day after initiation of culture and a serially diluted solution of a compound was added on the two days after initiation of culture. Day 5 after seeding, cells were fixed with a 25% aqueous solution of glutaraldehyde and stained with a staining fluid (0.05 w/v % crystal violet in 20% methanol). After an extract (0.1 N NaH2PO4: 100% ethanol=1:1) was added and stirred, an absorbance at 540 nm was measured to obtain a cell count. The cell viability was calculated in accordance with the following equation and statistically processed in accordance with a Student's t-test.
T: Absorbance of a well exposed to radiation or containing a compound
C: Absorbance of a well neither exposed to radiation nor containing a compound

[3] = tested on: human brain tumor cell line (U-87 MG); assay: Combinational effect of compound and temozolomide (TMZ), cell viability (crystal violet); format: cell-based; details: any order (same-day, compound first, TMZ first), Student's t-test
Protocol: A human brain tumor cell line (U-87 MG) was suspended in a medium, seeded in individual wells of a multi-well plate and cultured. In the case where two compounds are simultaneously added, both compounds were added on two days after initiation of culture. In the case where addition of the compound of the present invention preceded, a serially diluted solution of the compound was added on the day after initiation of culture and a serially diluted solution of TMZ was added two days after initiation of culture. In the case where addition of TMZ preceded, a serially diluted solution of TMZ was added on the day after initiation of culture and a serially diluted solution of the compound was added on two days after initiation of culture. Day 5 after seeding, cells were fixed with a 25% aqueous solution of glutaraldehyde and stained with a staining fluid (0.05 w/v % crystal violet in 20% methanol). After an extract (0.1 N NaH2PO4: 100% ethanol=1:1) was added and stirred, an absorbance at 540 nm was measured to obtain a cell count. The cell viability was calculated in accordance with the following equation and statistically processed in accordance with a Student's t-test.
T: Absorbance of a well containing TMZ or a compound
C: Absorbance of a well containing neither TMZ nor a compound

HCT116 = assay: Growth suppression activity in human tumor cell line; format: cell-based; details: HCT-116, 72 h; Human colorectal cancer, HCT116, 3 days
Protocol: as §1, with “concentration (IC50 (μM)) of the” for “concentration (IC50 (nM)) of a”, “(μM)) of the compound at” for “(nM)) of a compound at”
as §2, §3

MOLT4 = assay: as above; format: cell-based; details: MOLT-4, 72 h; Human hematopoietic organ tumor, MOLT4, 3 days
Protocol: as §1, with “concentration (IC50 (μM)) of the” for “concentration (IC50 (nM)) of a”, “(μM)) of the compound at” for “(nM)) of a compound at”
as §2, §3

H1703 = assay: as above; format: cell-based; details: NCI-H1703, 72 h; Human lung cancer, H1703, 3 days
Protocol: as §1, with “concentration (IC50 (μM)) of the” for “concentration (IC50 (nM)) of a”, “(μM)) of the compound at” for “(nM)) of a compound at”
as §2, §3

A172 = assay: as above; format: cell-based; details: A 172, 72 h; Human brain tumor, A172, 3 days
Protocol: as §1, with “concentration (IC50 (μM)) of the” for “concentration (IC50 (nM)) of a”, “(μM)) of the compound at” for “(nM)) of a compound at”
as §2, §3

CCRFCEM = assay: as above; format: cell-based; details: CCRF-CEM, 72 h, Human hematopoietic organ tumor, 3 days
Protocol: as §1, with “concentration (IC50 (μM)) of the” for “concentration (IC50 (nM)) of a”, “(μM)) of the compound at” for “(nM)) of a compound at”
as §2, §3

MKN45 = assay: as above; format: cell-based; details: MKN-45, 72 h; Human stomach cancer, MKN45, 3 days
Protocol: as §1, with “concentration (IC50 (μM)) of the” for “concentration (IC50 (nM)) of a”, “(μM)) of the compound at” for “(nM)) of a compound at”
as §2, §3

HT29 = assay: as above; format: cell-based; details: HT-29, 72 h; Human colorectal cancer, HT29, 3 days
Protocol: as §1, with “concentration (IC50 (μM)) of the” for “concentration (IC50 (nM)) of a”, “(μM)) of the compound at” for “(nM)) of a compound at”
as §2, §3

LN229 = assay: as above; format: cell-based; details: LN-229, 72 h; Human brain tumor, LN229, 3 days
Protocol: as §1, with “concentration (IC50 (μM)) of the” for “concentration (IC50 (nM)) of a”, “(μM)) of the compound at” for “(nM)) of a compound at”
as §2, §3

H69 = assay: as above; format: cell-based; details: NCI-H69, 72 h; Human lung cancer, H69, 3 days
Protocol: as §1, with “concentration (IC50 (μM)) of the” for “concentration (IC50 (nM)) of a”, “(μM)) of the compound at” for “(nM)) of a compound at”
as §2, §3

MV-4-11 = assay: as above; format: cell-based; details: MV4-11, 72 h; Human hematopoietic organ tumor, MV-4-11, 3 days
Protocol: as §1, with “concentration (IC50 (μM)) of the” for “concentration (IC50 (nM)) of a”, “(μM)) of the compound at” for “(nM)) of a compound at”
as §2, §3

CFPAC1 = assay: as above; format: cell-based; details: CFPAC-1, 72 h; Human pancreatic cancer, CFPAC1, 3 days
Protocol: as §1, with “concentration (IC50 (μM)) of the” for “concentration (IC50 (nM)) of a”, “(μM)) of the compound at” for “(nM)) of a compound at”
as §2, §3

DLD1 = assay: as above; format: cell-based; details: DLD-1, 72 h; Human colorectal cancer, DLD1, 3 days
Protocol: as §1, with “concentration (IC50 (μM)) of the” for “concentration (IC50 (nM)) of a”, “(μM)) of the compound at” for “(nM)) of a compound at”
as §2, §3

MIAPACA2 = assay: as above; format: cell-based; details: MIA PaCa-2, 72 h; Human pancreatic cancer, MIAPACA2, 3 days
Protocol: as §1, with “concentration (IC50 (μM)) of the” for “concentration (IC50 (nM)) of a”, “(μM)) of the compound at” for “(nM)) of a compound at”
as §2, §3

[4] = Presence of prodrug in mouse and absorbency (plasma AUC after oral administration); format: in vivo; details: male, Balb/cA, mouse, 7.6 umol/kg, mice, 7.6 μmol/kg, administered compound itself in plasma, read-out: AUC0-6hr
Protocol: The dosage amounts of the compounds of Comparative Examples 1 to 5 and Examples 1 to 26 are those (mole/10 mL/kg) shown in Tables. Solutions for administration were prepared with an 0.5% aqueous solutions of HPMC so as to satisfy the dosage amounts.
Note that, the “amount of mole/10 mL/kg” means as follows: for example “10 mmol/10 mL/kg” means that 10 mmol of a test compound per body-weight (1 kg) of a mouse was dispersed or dissolved in a solution (10 mL) for administration. The same applies hereinafter.
The solutions for administration prepared above were orally administered to mice (Balb/cA, male) not fasted each by use of an oral administration sonde.
The mice were anesthetized with isoflurane 0.5, 1, 2, 4 and 6 hours after administration and blood was taken from the facial vein by use of a specific needle (animal lancet) and a heparin-coated hematocrit tube.
The blood sampled was immediately centrifuged (13000 rpm, 2 minutes, 4° C.) to prepare the plasma samples. After proteins were removed from the plasma samples, the concentrations of the test compound in the plasma samples were measured by LC/MS/MS.
The value of “area under the curve” (AUC) of drug concentration in blood versus time was calculated using analysis software such as Phoenix (registered trademark) WinNonlin (registered trademark).
In Table 3, “Comparative Example 1” and “Comparative Example 2” represent the “compound (Br form) of Comparative Example 1” and the “compound (I form) of Comparative Example 2”, respectively. In Table 4, “Comparative Example 6” represents the “compound (C1 form) of Comparative Example 6”.

For `Nc1ncnc2c1c(I)cn2[C@@H]1O[C@H](CO)[C@@H](O)[C@@H]1F` [Comparative Example 2, (2R,3R,4S,5R)-5-(4-amino-5-iodo-7H-pyrrolo[2,3-d]pyrimidin-7-yl)-4-fluoro-2-(hydroxymethyl) tetrahydrofuran-3-ol], the IC50 (A427) was 98 nM, the IC50 (H520) was 29 nM and the “final day of evaluation (administration continued as long as weight loss was acceptable, until 20% or more)” value [1] was 6 days. The “cell viability, combination treatment with radiation exposure compared to the single treatments” value [2] was “cell viability significantly decreased”, the “cell viability, combination treatment with TMZ compared to the single treatments” value [3] was “significant decrease in cell viability” and the IC50 (HCT116) was 90 nM. For the same compound, the IC50 (MOLT4) was 10 nM, the IC50 (H1703) was 40 nM and the IC50 (A172) was 30 nM. It also gave an IC50 (CCRFCEM) of 40 nM, an IC50 (MKN45) of 130 nM and an IC50 (HT29) of 130 nM. For the same compound, the IC50 (LN229) was 20 nM, the IC50 (H69) was 60 nM and the IC50 (MV-4-11) was 4 nM. For the same compound, the IC50 (CFPAC1) was 50 nM, the IC50 (DLD1) was 40 nM and the IC50 (MIAPACA2) was 40 nM. The AUC(0-t) [4] was 0.21 µM·h.
